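Five compound concentrations were applied to cells in 96-well plates for 48 hours; endpoints were derived by simple linear interpolation of the resulting dose-response curve. GI50 is the concentration that inhibits growth by half.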 Active and inactive are the calls of the source. No stated cut-off is given here; in the data, active = GI50 up to about 1.1 µM and inactive = higher.
Assays:
Test in all cases: inhibition of tumour cell growth, NCI panel, 48 h
DMS-273 = system: DMS-273
M19-MEL = system: M19-MEL
HOP-18 = system: HOP-18
RXF 631 = system: RXF 631
SNB-78 = system: SNB-78
DLD-1 = system: DLD-1
DMS-114 = system: DMS-114
LXFL 529 = system: LXFL 529
XF498 = system: XF498

SMILES | GI50 (DMS-273) | GI50 (M19-MEL) | GI50 (HOP-18) | GI50 (RXF 631) | GI50 (SNB-78) | GI50 (DLD-1) | GI50 (DMS-114) | GI50 (LXFL 529) | GI50 (XF498)
CN(C)CCNC(=O)c1cccc2nc3ccc4ccccc4c3nc12 | 0.0362 µM (active) | 0.0946 µM (active) | 0.197 µM (active) | 0.0405 µM (active) | 0.138 µM (active) | 0.047 µM (active) | 0.121 µM (active) |  | 
COC(=O)C1(C(C)C)CCc2c(OC)ccc(OC)c2C1=O (stereo not given) |  | > 100 µM (inactive) | > 100 µM (inactive) |  | > 100 µM (inactive) | > 100 µM (inactive) | > 100 µM (inactive) | > 100 µM (inactive) | > 100 µM (inactive)
COc1cc(C2c3cc4c(cc3[C@@H](Nc3ccc5c(c3)OCCO5)C3COC(=O)[C@H]23)OCO4)cc(OC)c1O (stereo not given in full) | 0.109 µM (active) | 0.622 µM (active) | 3.98 µM (inactive) | 0.273 µM (active) | 1.84 µM (inactive) | 0.692 µM (active) | 0.303 µM (active) | 3.44 µM (inactive) | 0.525 µM (active)
CCCS(=O)(=O)/C(=C(\c1ccc(Br)cc1)S(=O)(=O)CCC)c1ccc(Br)cc1 | > 10 µM (inactive) | > 10 µM (inactive) | > 10 µM (inactive) |  | > 10 µM (inactive) | > 10 µM (inactive) |  | > 10 µM (inactive) | > 10 µM (inactive)
Cc1nn(C(=O)CC(=O)Nc2ccccc2Cl)c(C)c1/N=N/c1ccccc1Cl | > 100 µM (inactive) | > 100 µM (inactive) | > 100 µM (inactive) | > 100 µM (inactive) | 40.9 µM (inactive) | > 100 µM (inactive) | > 100 µM (inactive) | > 100 µM (inactive) | > 100 µM (inactive)
O=C(O)c1oc2ccc([N+](=O)[O-])c3c2c1CCC3 | > 100 µM (inactive) | > 100 µM (inactive) | > 100 µM (inactive) |  | > 100 µM (inactive) | > 100 µM (inactive) | > 100 µM (inactive) | > 100 µM (inactive) | 24.4 µM (inactive)
O=C(CC(=O)N1N=C(N2c3ccccc3Sc3ccccc32)CC1c1ccccc1)Nc1ccc(Cl)cc1 (stereo not given) | > 100 µM (inactive) | > 100 µM (inactive) | > 100 µM (inactive) |  | > 100 µM (inactive) | > 100 µM (inactive) | > 100 µM (inactive) | > 100 µM (inactive) | > 100 µM (inactive)
COc1cc2c3c(c1OC)C1(C=CC(=O)C=C1)C[C@H]3N(C)CC2 [PRONUCIFERINE] | > 100 µM (inactive) | > 100 µM (inactive) | > 100 µM (inactive) | > 100 µM (inactive) | > 100 µM (inactive) | > 100 µM (inactive) | > 100 µM (inactive) | > 100 µM (inactive) | > 100 µM (inactive)
COc1ccc2c3c(c(C(=O)O)oc13)CCC2 | > 100 µM (inactive) | > 100 µM (inactive) |  |  | > 100 µM (inactive) | > 100 µM (inactive) | > 100 µM (inactive) | > 100 µM (inactive) | > 100 µM (inactive)
CCCC(=O)c1ccc(=O)n(C)c1 | > 100 µM (inactive) | > 100 µM (inactive) |  | 88.3 µM (inactive) |  | > 100 µM (inactive) | > 100 µM (inactive) | > 100 µM (inactive) | > 100 µM (inactive)
c1ccc(C2CC(c3ccc4ccccc4c3)=Nc3ccccc3S2)cc1 (stereo not given) | 21.3 µM (inactive) | 18.7 µM (inactive) | 19.4 µM (inactive) | 24.3 µM (inactive) | 18.6 µM (inactive) | > 10 µM (inactive) |  | 14.5 µM (inactive) | 17.4 µM (inactive)
CC(=O)O/C(C)=C\C(=O)O/N=C(\N)c1ccc(C)cc1 | 28.4 µM (inactive) |  | 26.2 µM (inactive) | 22.5 µM (inactive) | 21.1 µM (inactive) | 18.9 µM (inactive) | 18.8 µM (inactive) | 19.5 µM (inactive) | 23.9 µM (inactive)
O=C1c2ccccc2C2(Br)C(=O)c3ccccc3C12 (stereo not given) | 19.6 µM (inactive) | > 100 µM (inactive) | > 100 µM (inactive) | 10.4 µM (inactive) |  | > 100 µM (inactive) | > 100 µM (inactive) | > 100 µM (inactive) | 
O=C1OC(c2ccccc2)=N/C1=C/NC(Cc1ccc(O)cc1)C(=O)O (stereo not given) | > 100 µM (inactive) |  | 36.1 µM (inactive) |  | > 100 µM (inactive) | > 100 µM (inactive) | > 100 µM (inactive) | > 100 µM (inactive) | > 100 µM (inactive)
COc1cc(C(=O)C/C(CCC(=O)Nc2ccccc2[N+](=O)[O-])=N\NC(=O)CC#N)ccc1O | > 100 µM (inactive) | > 100 µM (inactive) | > 100 µM (inactive) | > 100 µM (inactive) |  | > 100 µM (inactive) |  | > 100 µM (inactive) | > 100 µM (inactive)
COc1cc(Br)c(/C=N\c2cccc3cc(OC)c(OC)cc23)cc1OC | 43.4 µM (inactive) | 41.6 µM (inactive) | > 100 µM (inactive) | 50.5 µM (inactive) | 55.8 µM (inactive) | 43.4 µM (inactive) | 17.2 µM (inactive) | 25.9 µM (inactive) | 
CC(Cl)(/C=C/Cl)C(Cl)/C=C/C(Cl)(CCl)CBr (stereo not given) | 3.63 µM (inactive) | 3.12 µM (inactive) | 2.52 µM (inactive) | 1.91 µM (inactive) | 1.75 µM (inactive) | 2.47 µM (inactive) | 1.96 µM (inactive) | 1.22 µM (inactive) | 
O=C1OC2CCCC[C@@H]2C2C[C@]34CCCCC3[C@@H](C(=O)O4)C12 (stereo not given in full) |  | > 100 µM (inactive) | > 100 µM (inactive) |  | > 100 µM (inactive) | > 100 µM (inactive) | > 100 µM (inactive) | > 100 µM (inactive) | > 100 µM (inactive)
CC(=O)OCC1OC(NC(=S)N/N=C2\CC(c3ccccc3)Oc3ccccc32)C(OC(C)=O)C(OC(C)=O)C1OC(C)=O (stereo not given) | 56.8 µM (inactive) | > 100 µM (inactive) | > 100 µM (inactive) | 32 µM (inactive) | > 100 µM (inactive) | > 100 µM (inactive) | > 100 µM (inactive) | > 100 µM (inactive) | > 100 µM (inactive)
CCOC(=O)C1=C(C)N(Cc2ccccc2)C(C)=C(C(=O)OCC)C1c1ccccc1O | 32.7 µM (inactive) | 27.4 µM (inactive) | 44.2 µM (inactive) | 22.5 µM (inactive) |  | 27.9 µM (inactive) | 17.9 µM (inactive) | 26.5 µM (inactive) | 21.5 µM (inactive)
O=c1oc2ccccc2c(O)c1C(C/C(CCN1CCCC1)=N/O)c1ccccc1 (stereo not given) |  | > 100 µM (inactive) |  | > 100 µM (inactive) |  | > 100 µM (inactive) | > 100 µM (inactive) | > 100 µM (inactive) | > 100 µM (inactive)
CC(C(=O)O)/C(=C\c1ccc2c(c1)OCO2)C(=O)O (stereo not given) | > 100 µM (inactive) | > 100 µM (inactive) | > 100 µM (inactive) | > 100 µM (inactive) |  | > 100 µM (inactive) | > 100 µM (inactive) | > 100 µM (inactive) | > 100 µM (inactive)
O=C1CC(C[C@H](O)C2CCCCC2O)CC(=O)N1Cc1ccccc1 (stereo not given in full) | > 100 µM (inactive) | > 100 µM (inactive) | > 100 µM (inactive) | > 100 µM (inactive) | > 100 µM (inactive) | > 100 µM (inactive) |  | > 100 µM (inactive) | > 100 µM (inactive)
Nc1ccccc1C(=O)CCC1C(=O)NC(=S)NC1=O | > 100 µM (inactive) | > 100 µM (inactive) | > 100 µM (inactive) | > 100 µM (inactive) |  | > 100 µM (inactive) | > 100 µM (inactive) | > 100 µM (inactive) | 
C[N+]1(C)C/C(=C\c2ccccc2)C(=O)/C(=C/c2ccccc2)C1 | 37.5 µM (inactive) | 32.7 µM (inactive) | > 100 µM (inactive) | > 100 µM (inactive) | > 100 µM (inactive) | > 100 µM (inactive) | 39.5 µM (inactive) | 70.1 µM (inactive) | > 100 µM (inactive)
O=C(CC(=O)C(=O)CC(=O)OCc1ccccc1)OCc1ccccc1 |  | > 100 µM (inactive) |  |  |  | 60.8 µM (inactive) | > 100 µM (inactive) | > 100 µM (inactive) | 
CC(=O)CC[N+](C)(C)C | 21 µM (inactive) | 23.3 µM (inactive) | 13.9 µM (inactive) | 28.8 µM (inactive) | 12.5 µM (inactive) | 10.1 µM (inactive) |  | 12.9 µM (inactive) | 
O=C(c1ccc(Cl)cc1)N(C(=S)N1CCN(c2ccccc2)CC1)c1ccccc1 | > 100 µM (inactive) | > 100 µM (inactive) | > 100 µM (inactive) |  | > 100 µM (inactive) | > 100 µM (inactive) |  | > 100 µM (inactive) | 
